Experiments:
Plasmodium falciparum [1] = assay: Antiplasmodial activity against Plasmodium falciparum D6; assay type: functional, organism-based
Plasmodium falciparum [2] = assay: Antiplasmodial activity against Plasmodium falciparum W2; assay type: functional, organism-based

Compound | IC50 (Plasmodium falciparum [1]) [µM] | IC50 (Plasmodium falciparum [2]) [µM]
C[C@H]1C(CCO)=CC(=O)[C@H]2[C@H]1CC[C@H]1C(C)(C)CCC[C@]21C | 18.7 | 15.6
CC[C@H](/C=C/[C@@H](C)[C@H]1CC[C@H]2[C@@H]3CC=C4C[C@@H](O)CC[C@]4(C)[C@H]3CC[C@]12C)C(C)C [STIGMASTEROL] | > 50 | > 50
C=C1C(CCOC(=O)/C=C/c2ccc(O)c(O)c2)=CC(=O)[C@H]2[C@H]1CC[C@H]1C(C)(C)CCC[C@]21C | 11.6 | 16.5
CC(=O)O[C@@]1(C)CCC[C@]2(C)[C@H]3Cc4occc4[C@H](C)[C@@H]3CC[C@@]12O | 34.4 | 30.7
C=C1C(CCO)=CC(=O)[C@H]2[C@H]1CC[C@H]1C(C)(C)CCC[C@]21C | 17.3 | 22.8
CC1(C)CC[C@]2(C(=O)O)CC[C@]3(C)C(=CC[C@@H]4[C@@]5(C)CC[C@H](O)C(C)(C)[C@@H]5CC[C@]43C)[C@@H]2C1 [OLEANOLIC_ACID] | 23.8 | 26.2
C[C@H]1c2ccoc2C[C@H]2[C@H]1CC[C@@]1(O)C(C)(C)CCC[C@]21C [VOUCAPAN-5 ALPHA-OL] | > 50 | > 50
CC(=O)O[C@@]1(C)CCC[C@@]2(C)[C@H]1CC[C@H]1[C@@H](C)c3ccoc3C[C@@H]12 | 25.7 | 30.3
CC[C@H](CC[C@@H](C)[C@H]1CC[C@H]2[C@@H]3CC=C4C[C@@H](O)CC[C@]4(C)[C@H]3CC[C@]12C)C(C)C [BETA-SITOSTEROL] | > 50 | > 50
COC(=O)[C@]12CCC(C)(C)C[C@H]1C1=CC[C@@H]3[C@@]4(C)CC[C@H](OC(C)=O)C(C)(C)[C@@H]4CC[C@@]3(C)[C@]1(C)CC2 | 18.7 | 24.4
CC[C@H](/C=C/[C@@H](C)[C@H]1CC[C@H]2[C@@H]3CC=C4C[C@@H](O[C@@H]5OC[C@@H](O)[C@H](O)[C@H]5O[C@@H]5O[C@H](CO)[C@@H](O)[C@H](O)[C@H]5O)CC[C@]4(C)[C@H]3CC[C@]12C)C(C)C | 4.44 | 2.74

Reference: ChEMBL document CHEMBL2380308, “Voulkensin C-E, new 11-oxocassane-type diterpenoids and a steroid glycoside from Caesalpinia volkensii stem bark and their antiplasmodial activities” (Bioorg Med Chem Lett, 2013)
